Data as given in patent US4418064A, “Chemotherapeutically active maytansinoids: treflorine, trenudine, and N-methyltrenudone” (priority 1982, dated 1983).
In brackets after ≈: the same amount, converted by molar mass.

Experiments:
B16 melanocarcinoma = assay: B1 system, B16 melanocarcinoma in mice, NCI Protocol 1.300; assay type: in vivo; conditions: i.p. once a day for 9 days, host sex M
Method: The compounds were also evaluated in the B1 system against B16 melanocarcinoma in mice. This assay is conducted in accordance with the NCI Protocol 1.300 described in Geran et al., supra. Starting 24 hours after the tumor implantation, predetermined doses of the compound were injected intraperitoneally once a day for 9 days. The results are reported in Table VI below as the percent T/C.

[1] = tested on: human epidermoid carcinoma of the mouth (KB); assay: cells; conditions: for IC50: Homo sapiens, KB, 72 h, read-out: ED50; for KB cytotoxicity compared with that reported for maytansine, maytanbutine and others: compared with Kupchan, J. Med. Chem. 21, Table II
Method: The KB Cell Culture Screen used in guiding the above-described fractionations was conducted in accordance with the National Cancer Institute (NCI) Protocol 1.600 [Geran et al., Cancer Chemother. Rep., Part 3, 3: 17 (1972)] in which the effectiveness of the test compounds against cultivated cells of human epidermoid carcinoma of the mouth was evaluated. […] Such a dose is referred to as ED50 and activity is indicated for ED50 levels of ≤30 μg./ml. The smaller the ED50 level, the more cytotoxic the test material.

[2] = tested on: lymphocytic leukemia P388; assay: PS system, lymphocytic leukemia P388 in mice, NCI Protocol 1.200, survival; assay type: in vivo; conditions: i.p. once a day for 9 days
Method: Another indication of fraction activity is the effectiveness in the PS system against lymphocytic leukemia P388 in mice. These assays are conducted according to the NCI Protocol 1.200 described in Geran et al., supra. Starting 24 hours after the tumor implantation, previously determined doses of each compound were injected intraperitoneally once a day for 9 days. Survival time of treated leukemic mice is compared to that of untreated mice (T/C×100). A T/C value of 100% indicates no activity. A T/C value greater than 100% means that the treated mice are surviving longer than the control mice. A compound giving a T/C value greater than 125% is indicative of activity as defined by the NCI Protocols, above.

[3] = tested on: lymphocytic leukemia P388; conditions: cited from earlier work; for activity against lymphocytic leukemia P388: at the microgram per kilogram level, Wani et al.; for dosage level at which activity in the PS system was demonstrated: U.S. Pat. No. 4,313,946
leukemia = conditions: Kupchan et al., J. Org. Chem. 42; cited from earlier work
European corn borer = conditions: U.S. Pat. No. 4,315,929; cited from earlier work
[4] = 4.00 μg./kg./inj., distilled water + alcohol
[5] = 8.00 μg./kg./inj., distilled water + alcohol
[6] = 16.00 μg./kg./inj., distilled water + alcohol
[7] = 32.00 μg./kg./inj., distilled water + alcohol
[8] = 4.00 μg./kg./inj., distilled water + alcohol, host sex M
[9] = 8.00 μg./kg./inj., distilled water + alcohol, host sex M
[10] = 16.00 μg./kg./inj., distilled water + alcohol, host sex M
[11] = 32.00 μg./kg./inj., distilled water + alcohol, host sex M

Structure (SMILES): COc1cc2cc(c1Cl)N1CC(O)C(C)(O)C(=O)NC(C)C(=O)O[C@@H](CC1=O)[C@]1(C)O[C@H]1[C@H](C)[C@@H]1C[C@@](O)(NC(=O)O1)[C@H](OC)/C=C/C=C(\C)C2OC (some centres unmarked) [trenudine]
- T/C (%) (B16 melanocarcinoma; 1.00 μg./kg./inj., distilled water + alcohol): 137%
- T/C (%) (B16 melanocarcinoma; 2.00 μg./kg./inj., distilled water + alcohol): 147%
- T/C (%) (B16 melanocarcinoma; [4]): 145%
- T/C (%) (B16 melanocarcinoma; [5]): 176%
- T/C (%) (B16 melanocarcinoma; [6]): 197%
- T/C (%) (B16 melanocarcinoma; [7]): toxic
- IC50 [1]: 0.64 ng/mL (≈ 0.835 nM)
- KB cytotoxicity compared with that reported for maytansine, maytanbutine and others [1]: at least one order of magitude less
- T/C (%) ([2]; 2.00 μg./kg./inj., distilled water + alcohol, host sex F): 144%
- T/C (%) ([2]; 4.00 μg./kg./inj., distilled water + alcohol, host sex F): 137%
- T/C (%) ([2]; 8.00 μg./kg./inj., distilled water + alcohol, host sex F): 146%
- T/C (%) ([2]; 16.00 μg./kg./inj., distilled water + alcohol, host sex F): 137%
- T/C (%) ([2]; 32.00 μg./kg./inj., distilled water + alcohol, host sex F): toxic

Structure (SMILES): COc1cc2cc(c1Cl)N(C)C(=O)C[C@H](OC(=O)[C@H](C)N(C)C(=O)C(C)C)[C@]1(C)O[C@H]1[C@H](C)[C@@H]1C[C@@](O)(NC(=O)O1)[C@H](OC)/C=C/C=C(\C)C2O (some centres unmarked) [colubrinol]
- activity against lymphocytic leukemia P388 [3]: demonstrated activity

Structure (SMILES): COc1cc2cc(c1Cl)N1CCC(C)(O)C(=O)NC(C)C(=O)O[C@@H](CC1=O)[C@]1(C)O[C@H]1[C@H](C)[C@@H]1C[C@@](O)(NC(=O)O1)[C@H](OC)/C=C/C=C(\C)C2OC (some centres unmarked) [treflorine]
- T/C (%) (B16 melanocarcinoma; [4]): 130%
- T/C (%) (B16 melanocarcinoma; [5]): 160%
- T/C (%) (B16 melanocarcinoma; [6]): 162%
- T/C (%) (B16 melanocarcinoma; [7]): 178%
- IC50 [1]: 0.27 ng/mL (≈ 0.36 nM)
- KB cytotoxicity compared with that reported for maytansine, maytanbutine and others [1]: at least one order of magitude less
- T/C (%) [2, 8]: 150%
- T/C (%) [2, 9]: 144%
- T/C (%) [2, 10]: 157%
- T/C (%) [2, 11]: 150%

Structure (SMILES): C=C(C)C(=O)N(C)[C@@H](C)C(=O)O[C@H]1CC(=O)N(C)c2cc(cc(OC)c2Cl)C(OC)/C(C)=C/C=C/[C@@H](OC)[C@@]2(O)C[C@H](OC(=O)N2)[C@@H](C)[C@@H]2O[C@@]12C (some centres unmarked) [dehydrotrewiasine]
- dosage level at which activity in the PS system was demonstrated [3]: 4 µg/kg

Structure (SMILES): COc1cc2cc(c1Cl)N(C)C(=O)C[C@H](OC(=O)C(C)C)[C@]1(C)O[C@H]1[C@H](C)[C@@H]1C[C@@](O)(NC(=O)O1)[C@H](OC)/C=C/C=C(\C)C2OC(C)=O (some centres unmarked) [maytanbutacine]
- antileukemic activity (leukemia): antileukemic principle

Structure (SMILES): COc1cc2cc(c1Cl)N(C)C(=O)C[C@H](OC(=O)[C@H](C)N(C)C(=O)C(C)C)[C@]1(C)O[C@H]1[C@H](C)[C@@H]1C[C@@](O)(NC(=O)O1)[C@H](OC)/C=C/C=C(\C)C2OC (some centres unmarked) [trewiasine, reference compound]
- T/C (%) (B16 melanocarcinoma; 1.00 μg./kg./inj., vehicle Klucel): 133%
- T/C (%) (B16 melanocarcinoma; 2.00 μg./kg./inj., vehicle Klucel): 140%
- T/C (%) (B16 melanocarcinoma; 4.00 μg./kg./inj., vehicle Klucel): 157%
- T/C (%) (B16 melanocarcinoma; 8.00 μg./kg./inj., vehicle Klucel): 185%
- T/C (%) (B16 melanocarcinoma; 16.00 μg./kg./inj., vehicle Klucel): 172%
- T/C (%) (B16 melanocarcinoma; 32.00 μg./kg./inj., vehicle Klucel): 183%
- control of the European corn borer (European corn borer): effective in controlling the European corn borer
- ED50 ([1]; dose that inhibits growth to 50% of control, 3 days after drug addition): 0.2 ng/mL (≈ 0.267 nM)
- dosage level at which activity in the PS system was demonstrated [3]: 4 µg/kg
- T/C (%) ([2]; 4.00 μg./kg./inj., vehicle Klucel, host sex F): 163%
- T/C (%) ([2]; 8.00 μg./kg./inj., vehicle Klucel, host sex F): 140%
- T/C (%) ([2]; 16.00 μg./kg./inj., vehicle Klucel, host sex F): 154%
- T/C (%) ([2]; 32.00 μg./kg./inj., vehicle Klucel, host sex F): 128%
- T/C (%) ([2]; 64.00 μg./kg./inj., vehicle Klucel, host sex F): 91%

Structure (SMILES): COc1cc2cc(c1Cl)N1CC(=O)C(C)(O)C(=O)N(C)C(C)C(=O)O[C@@H](CC1=O)[C@]1(C)O[C@H]1[C@H](C)[C@@H]1C[C@@](O)(NC(=O)O1)[C@H](OC)/C=C/C=C(\C)C2OC (some centres unmarked) [N-methyltrenudone]
- T/C (%) (B16 melanocarcinoma; [4]): 109%
- T/C (%) (B16 melanocarcinoma; [5]): 93%
- T/C (%) (B16 melanocarcinoma; [6]): 111%
- T/C (%) (B16 melanocarcinoma; [7]): 95%
- IC50 [1]: < 10 ng/mL
- T/C (%) [2, 8]: 153%
- T/C (%) [2, 9]: 108%
- T/C (%) [2, 10]: toxic
- T/C (%) [2, 11]: toxic

Structure (SMILES): COc1cc2cc(c1Cl)N(C)C(=O)C[C@H](OC(=O)[C@H](C)N(C)C(=O)C(C)C)[C@]1(C)O[C@H]1[C@H](C)[C@@H]1C[C@@](O)(NC(=O)O1)[C@H](OC)/C=C/C=C(\C)C2OC(C)=O (some centres unmarked) [colubrinol acetate]
- activity against lymphocytic leukemia P388 [3]: demonstrated activity
